Assay results: ChEMBL document CHEMBL4689842, “EUbOPEN Chemogenomics Library wave 1” (2021)

Assays:
Format in all cases: toxicity, cell-based
HEK-293T = experiment: Incucyte cell viability with HEK293T; conditions: human, 10 µM, compound concentration 10 uM
Fibroblast = experiment: Incucyte cell viability with human fibroblast; conditions: 10 µM, compound concentration 10 uM
U2OS = experiment: Incucyte cell viability with U2OS; conditions: human, 10 µM, compound concentration 10 uM
[1] = 0 h, replicate number 1, timepoint 0 hours
[2] = 0 h, replicate number 2, timepoint 0 hours
[3] = 6 h, replicate number 1, timepoint 6 hours
[4] = 6 h, replicate number 2, timepoint 6 hours
[5] = 12 h, replicate number 1, timepoint 12 hours
[6] = 18 h, replicate number 1, timepoint 18 hours
[7] = 24 h, replicate number 1, timepoint 24 hours
[8] = 12 h, replicate number 2, timepoint 12 hours
[9] = 18 h, replicate number 2, timepoint 18 hours
[10] = 24 h, replicate number 2, timepoint 24 hours
Note: filed as whole numbers so only -1 and 0 and 1 occur.

Row | SMILES | Growth Rate (HEK-293T; [1]) | Growth Rate (HEK-293T; [2]) | Growth Rate (HEK-293T; [3]) | Growth Rate (HEK-293T; [5]) | Growth Rate (HEK-293T; [6]) | Growth Rate (HEK-293T; [7]) | Growth Rate (Fibroblast; [1]) | Growth Rate (Fibroblast; [4]) | Growth Rate (Fibroblast; [8]) | Growth Rate (Fibroblast; [6]) | Growth Rate (Fibroblast; [7]) | Growth Rate (U2OS; [1]) | Growth Rate (U2OS; [3]) | Growth Rate (U2OS; [4]) | Growth Rate (U2OS; [5]) | Growth Rate (U2OS; [6]) | Growth Rate (U2OS; [9]) | Growth Rate (U2OS; [7]) | Growth Rate (Fibroblast; [5]) | Growth Rate (Fibroblast; [3]) | other results
1 | O=c1ccn([C@@H]2O[C@H](COP(=O)([O-])OP(=O)([O-])O)[C@@H](O)[C@H]2O)c(=O)[nH]1.[Na+].[Na+] | 1 | 0 | 0 | 1 | 1 | 1 | 0 | 1 | 1 | 1 | 1 | 1 | 0 | 1 | 1 | 0 | 1 | 1 |  |  | Growth Rate (HEK-293T; [4]): 1; Growth Rate (U2OS; [2]): 0
2 | Cl.O=C([C@@H](Cc1cccc(C(F)(F)F)c1)NS(=O)(=O)c1cc(F)c2c(c1)CCNC2)N1CCCC1 | 0 | 1 |  |  |  |  |  |  |  |  | 1 | 0 | 0 | 1 | 1 | 0 | 1 | 1 | 1 |  | Growth Rate (HEK-293T; [4]): 1; Growth Rate (HEK-293T; [8]): 1; Growth Rate (HEK-293T; [10]): 1; Growth Rate (Fibroblast; [2]): 1; Growth Rate (Fibroblast; [9]): 1
3 | CC(C)OC(=O)C1=CN(C(=O)c2ccc(F)c(F)c2)CC(C)(C)c2c1[nH]c1ccccc21 [TUROFEXORATE ISOPROPYL] | 0 |  | 0 | 0 | 0 | 0 | 0 |  |  | 0 | 0 | 0 |  |  | 0 | 0 | 1 | 0 | 0 | 0 | Growth Rate (U2OS; [10]): 1
4 | Cl.O=C(O)Cc1cccc(OCCCN(Cc2cccc(C(F)(F)F)c2Cl)CC(c2ccccc2)c2ccccc2)c1 | 0 |  | 1 | 1 | 0 | 0 | 0 | 0 | 0 | 1 | 0 | 0 |  | 0 | 0 | 0 | 1 | 1 | 1 | 1 | Growth Rate (HEK-293T; [8]): 0; Growth Rate (Fibroblast; [9]): 0
5 | CNC[C@H](O)c1cccc(O)c1 [PHENYLEPHRINE] | 0 |  | 0 | 0 | 0 | 1 | 1 |  |  |  |  |  |  | 0 | 1 | 1 |  | 1 | 1 |  | Growth Rate (HEK-293T; [10]): 0; Growth Rate (Fibroblast; [2]): 0; Growth Rate (Fibroblast; [9]): 1; Growth Rate (U2OS; [2]): 0
6 | Cc1ccc2nc(CNCCCOc3ccccc3)cc(O)c2c1 [UCSF924] | 0 | 1 | 0 | 0 | 0 | 0 |  | 1 |  | 0 | 0 | 0 | 0 |  | 0 | 0 |  | 0 | 0 | 0 | Growth Rate (Fibroblast; [2]): 1
7 | C=C(c1ccc(C(=O)O)cc1)c1cc2c(cc1C)C(C)(C)CCC2(C)C [BEXAROTENE] | 1 | 0 | 0 | 0 | 0 | 0 | 0 |  |  | 1 | 1 | 0 |  |  | 1 | 1 |  | 1 | 1 |  | Growth Rate (HEK-293T; [4]): 1; Growth Rate (HEK-293T; [8]): 1; Growth Rate (U2OS; [2]): -1
8 | CCC[C@H](Oc1cc(C)c(-n2cc(C(F)(F)F)cn2)c(C)c1)c1ccc(C(=O)NCCC(=O)O)cc1 [PF-06291874] | 1 | 0 | 0 | 0 | 0 | 0 | 0 |  |  | 0 | 1 |  |  | 0 | 1 | 0 | 1 | 1 | 0 | 1 | 
9 | COc1cc(OC)cc(-c2noc(N3CCN(C)C4(CCN(c5ccnc(C)c5)CC4)C3)n2)c1 |  |  | 0 |  |  | 1 |  | 1 | 0 | 1 | 0 | 0 | 0 | 1 | 0 | 0 | 1 | 0 | 1 | 0 | Growth Rate (HEK-293T; [8]): 1; Growth Rate (Fibroblast; [2]): 0; Growth Rate (Fibroblast; [9]): 0; Growth Rate (U2OS; [8]): 1; Growth Rate (U2OS; [10]): 1
10 | CC(C)NC(=O)c1ccc(C#Cc2ccncc2)cn1 | 0 |  | 0 | 0 | 0 | 0 | 0 | 0 | 1 | 1 | 1 | 0 |  |  | 1 | 1 |  | 0 | 0 | 1 | Growth Rate (Fibroblast; [2]): 1; Growth Rate (U2OS; [10]): 1
11 | O=S(=O)(NC1CCC(c2cc(F)ccc2F)(S(=O)(=O)c2ccc(Cl)cc2)CC1)C(F)(F)F (stereo not given) [MRK-560] | 0 | 1 | 1 | 0 | 0 | 0 | 0 | 1 | 0 | 1 | 1 | 1 | 1 | 0 | 1 | 0 |  | 1 | 1 |  | Growth Rate (Fibroblast; [10]): 0; Growth Rate (U2OS; [10]): 0
12 | CC(=O)C1=C(C)N(c2cccc(C(F)(F)F)c2)C(=O)N[C@@H]1c1ccc(C#N)nc1 [BAY-678] | 0 | 1 |  |  | 1 | 1 | 1 | 0 |  | 0 | 0 | 0 | 0 |  | 0 | 0 |  | 0 | 0 | 1 | Growth Rate (Fibroblast; [2]): 0; Growth Rate (U2OS; [8]): 1
13 | CC(C)C[C@H](CO)Nc1nc(S[C@@H](C)c2ccccc2)nc2nc(N)sc12 [AZD-8797] | 1 | 0 | 0 | 0 | 0 | 0 | 1 |  | 1 | 0 | 0 |  | 0 |  | 0 | 0 |  | 0 | 0 | 0 | Growth Rate (HEK-293T; [4]): 1; Growth Rate (HEK-293T; [8]): 1; Growth Rate (Fibroblast; [2]): 0; Growth Rate (Fibroblast; [9]): 1; Growth Rate (Fibroblast; [10]): 1
14 | CO[C@H]1CC[C@H](CNc2ccc(S(=O)(=O)NC(=O)c3ccc(N4CCN(CC5=C(c6ccc(Cl)cc6)CC(C)(C)CC5)CC4)cc3Oc3cnc4[nH]ccc4c3)cc2[N+](=O)[O-])CC1 [A-1211212] | 0 |  |  |  | 1 | 1 | 0 |  |  | 0 | 0 | 0 | 1 |  | 0 | 0 |  | 0 | 0 | 0 | Growth Rate (HEK-293T; [4]): 1; Growth Rate (HEK-293T; [8]): 1; Growth Rate (HEK-293T; [10]): 0; Growth Rate (U2OS; [8]): 1; Growth Rate (U2OS; [10]): 1
15 | CC(C)(Sc1ccc(CCN(CCCCC2CCCCC2)C(=O)NC2CCCCC2)cc1)C(=O)O [GW7647] | 1 | 0 | 0 | 0 | 0 | 0 | 0 |  |  | 1 | 0 | 0 |  | 1 | 1 | 1 |  | 1 | 0 | 0 | Growth Rate (HEK-293T; [4]): 1; Growth Rate (HEK-293T; [8]): 1; Growth Rate (HEK-293T; [9]): 1; Growth Rate (Fibroblast; [10]): 1
16 | CCC(=N\O)/C(C)=C/c1ccc(F)c(C)c1 [A-226] |  | 0 | 0 | 0 | 0 | 0 | 0 |  |  | 0 | 1 | 0 | 0 |  | 1 | 0 | 1 | 0 | 0 | 0 | Growth Rate (Fibroblast; [9]): 1; Growth Rate (U2OS; [2]): 1; Growth Rate (U2OS; [10]): 1
17 | CC[C@@H]1CN2C(=O)N(C)c3nc(-c4ccccc4)[nH]c3C2=N1.Cl | 1 | 0 | 1 | 1 | 1 | 1 | 0 |  | 0 | 1 | 1 |  |  | 1 |  | 1 |  | 1 | 1 |  | Growth Rate (U2OS; [2]): 0; Growth Rate (U2OS; [8]): 0
18 | O=C(Nc1nc2cccc(-c3ccc(CN4CCS(=O)(=O)CC4)cc3)n2n1)C1CC1 [FILGOTINIB] | 0 |  | 0 | 0 | 0 | 0 | 0 | 0 |  | 0 | 0 | 1 | 1 | 0 | 0 | 0 |  | 0 | 0 | 1 | 
19 | Cc1c(NC(=O)c2cc(C(N)=O)nc3cc(F)ccc23)c(C(F)(F)F)nn1Cc1ccc(C#N)cc1 [BAY-876] |  | 0 | 0 | 0 | 0 | 0 | 0 |  |  | 0 | 0 | 1 | 1 | 0 | 0 | 0 |  | 0 | 0 | 0 | Growth Rate (U2OS; [2]): 0
